Experimental findings from ChEMBL document CHEMBL1157341, “An antimalarial tetrapeptide from the entomopathogenic fungus Hirsutella sp. BCC 1528” (J Nat Prod, 2006) are described below.

One data set deals with Plasmodium falciparum. The data set is described as follows: Antimalarial activity against Plasmodium falciparum K1 infected human A+ erythrocytes by [3H]hypoxanthine uptake. Type of data set: functional, organism-based.
A further data set deals with Vero. The data set can be described thus: Cytotoxicity against african green monkey Vero cells by SRB assay. Type of data set: cell-based. Particulars: chlorocebus sabaeus. A general note: In SRB staining, fixed cells bind dye roughly in proportion to their protein.
The next data set relates to KB. The data set can be described thus: Cytotoxicity against human KB cells up to 38 uM by SRB assay. Type of data set: functional, cell-based.
A further data set relates to BC. The data set is described as follows: Cytotoxicity against human BC cells up to 38 uM by SRB assay. Type of data set: functional, cell-based.
For another data set, the system named is NCI-H187. The data set is described as follows: Cytotoxicity against human NCI-H187 cells up to 38 uM by SRB assay. Type of data set: functional, cell-based.

Molecules are shown by their SMILES. pIC50: −log10 of the molar value. The source made the active and inactive calls. No cut-off for these calls is given here.

As to `CC[C@@H](C)[C@H](N)C(=O)N(C)[C@H](Cc1ccccc1)C(=O)N[C@@H](CC(C)C)C(=O)Nc1ccccc1C(=O)O` [HIRSUTELLIC ACID A], the pIC50 (as a rule, the IC50 on a negative log10 scale, so that one unit is a factor of ten) in the data set with Plasmodium falciparum was 5.10. Besides, the Activity result with Vero is on record as “Non-toxic”. Moreover, the result with KB, in the data set on BC and in the data set with NCI-H187 was inactive.
